Data taken from patent publication US20120010206A1, “IMIDAZOLOPYRIDINE COMPOUNDS USEFUL FOR THE TREATMENT OF DEGENERATIVE AND INFLAMMATORY DISEASES” (priority 2006, published 2012).

Tested on: MMP1 expression by complex trigger activated SFs
Assay: MMP assay: MMP1 expression (ELISA) by SFs activated with the 'complex trigger'
Format: cell-based
Conditions: Homo sapiens; SFs activated with supernatant of TNF-α-treated THP-1 cells (complex trigger), 48 hrs, FIG. 3; read-out: IC50 of reduction of MMP1 expression by SFs
Description: A 384-well format ELISA for measurement of MMP1 is developed. Various primary antibodies are tested, as well as various ELISA protocols. The following protocol is developed and validated to measure MMP1 levels in SF supernatant in 384 well plates: white Lumitrac 600 384 well plates (Greiner) are coated with 2 μg/mL anti-MMP1 antibody MAB1346 (Chemicon). The antibody is diluted in buffer 40 (1.21 g Tris base (Sigma), 0.58 g NaCl (Calbiochem) and 5 mL 10% NaN3 (Sigma) in 1 L milliQ water and adjusted to pH 8.5). After overnight incubation at 4° C., plates are washed with PBS (80 g NaCl, 2 g KCl (Sigma), 11.5 g Na2HPO4.7H2O and 2 g KH2PO4 in 10 L milliQ; pH 7.4) and blocked with 100 μL/well Casein buffer (2% Casein (VWR International) in PBS). Next day, casein buffer is removed from ELISA plates and replaced by 50 μL/well EC buffer (4 g casein, 2.13 g Na2HPO4 (Sigma), 2 g bovine albumin (Sigma), 0.69 g NaH2PO4.H2O (Sigma), 0.5 g CHAPS (Roche), 23.3 g NaCl, 4 mL 0.5 M EDTA pH 8 (Invitrogen), 5 mL 10% NaN3 in 1 L milliQ and adjusted to pH 7.0). 0.25 mM DTT (Sigma) is added to the thawed sample plates. After removal of the EC buffer, 20 μL of sample is transferred to the ELISA plates. […] Readout is performed on the Luminoscan Ascent Luminometer (Labsystems) with an integration time of 200 msec or with an Envision reader (Perkin Elmer). […]

- IC50: ~1 nM
Compound: C[C@@H]1C[C@H]2[C@@H]3CCC4=CC(=O)C=C[C@]4(C)[C@@]3(F)[C@@H](O)C[C@]2(C)[C@@]1(O)C(=O)CO [dexamethasone]
